Key:
E. coli B [1] = assay: Amplification of the antibacterial (cell-killing) activity of phleomycin in stationary phase cultures, viable cell counts; type: cell-based; conditions: concentration of optimum activity after phleomycin pretreatment (2 μg/ml, 30 min, 37°); 120 min treatment
Procedure: The ability of the compounds to potentiate the cell-killing effects of phleomycin was measured by the following procedure. Stationary phase cultures of E. coli B, with or without the compounds under test, were resuspended in growth medium containing phleomycin (2 μg/ml) and incubated at 37° for 30 minutes. The cells were then membrane filtered (0.45 μm pore size; 2.5 cms), washed with growth medium (20 μg/ml) and resuspended in growth medium (20 μg/ml) at 37° C. containing various concentrations, between 10^-10 M and 10^-2 M, of the compound under test. As a control, bacteria were exposed to the same range of concentrations of each compound but without the phleomycin pretreatment. To determine viable cell numbers aliquots were taken from each cell suspension after 120 minutes treatments, plated on agar medium and incubated overnight at 37° C. All operations with amplifying agents were carried out in near dark conditions.
Compounds were designated as active when the increase in activity with the combined treatment was greater than could be explained by the effects of the two compounds when administered separately.

Walker rat carcinoma 256 = assay: Survival of rats bearing Walker rat carcinoma 256 ascites tumour, treated with phleomycin plus amplifier; type: in vivo, Sprague Dawley rats; conditions: for amplification of the activity of phleomycin (survival of tumour-bearing rats): doses as in Table 2
Procedure: Walker rat carcinoma 256 as the ascites form was passaged in female Sprague Dawley rats. […] Intraperitoneal injections of 0.1 ml (10^6 viable cells) of the suspension were then made into test groups of 6-8 male Sprague Dawley rats.
Phleomycin dissolved in phosphate-buffered saline was given to animals in the test groups as 0.1 ml intraperitoneal injections twice daily; each injection was followed by a 0.1 ml intraperitoneal injection of the prospective amplifier. The treatments were given for 5-10 days, at varying concentrations of the phleomycin and amplifier.
The method of evaluating the effectiveness of the various treatments was based on those used in the screening programme of the Drug Evaluation Branch, National Cancer Institute, National Institute of Health, Bethesda, Maryland, U.S.A. (Cancer Chemotherapy Reports, Vol. 3, No. 2, September 1972). Thus the effectiveness of the drug treatment was measured by the increased survival time, measured in days, of the treated animals over control ones which received no drugs. Dead animals were counted daily, and median survival times (MST) calculated for all groups. […] The ratios (test group median survival time) divided by (control group median survival time)× 100 (T/C) were calculated for all the test groups.

E. coli B [2] = assay: Amplification of the antibacterial (cell-killing) activity of phleomycin in stationary phase cultures, viable cell counts; type: cell-based; conditions: envisaged from present studies; phleomycin at about 1 mg/l (or mg/kg)
[3] = 4,4'-bis(trimethylammonio)diphenylmethane dichloride 270 MKD alone (phleomycin 0), ×2 daily
[4] = phleomycin 4 MKD + 4,4'-bis(trimethylammonio)diphenylmethane dichloride 270 MKD, i.p. ×2 daily
[5] = Auramin 0 7.6 MKD alone (phleomycin 0), ×2 daily
[6] = phleomycin 8 MKD + Auramin 0 7.6 MKD, i.p. ×2 daily
[7] = Brilliant Green 640 MKD alone (phleomycin 0), ×2 daily
[8] = phleomycin 5 MKD + Brilliant Green 640 MKD, i.p. ×2 daily
[9] = phleomycin 10 MKD + Brilliant Green 640 MKD, i.p. ×2 daily
[10] = phleomycin 20 MKD + Brilliant Green 640 MKD, i.p. ×2 daily
[11] = Crystal Violet 0.5 MKD alone (phleomycin 0), twice daily from days 2 to 10
[12] = phleomycin 4 MKD + Crystal Violet 0.5 MKD, i.p. twice daily from days 2 to 10
[13] = Malachite Green 52 MKD alone (phleomycin 0), ×2 daily
[14] = phleomycin 8 MKD + Malachite Green 52 MKD, i.p. ×2 daily
[15] = Neutral Red 20 MKD alone (phleomycin 0), ×2 daily
[16] = phleomycin 8 MKD + Neutral Red 20 MKD, i.p. ×2 daily
[17] = phleomycin 16 MKD + Neutral Red 20 MKD, i.p. ×2 daily
[18] = phleomycin 32 MKD + Neutral Red 20 MKD, i.p. ×2 daily

Compound: C[N+](C)(C)c1ccc2cc3ccc([N+](C)(C)C)cc3c(-c3c4cc([N+](C)(C)C)ccc4cc4ccc([N+](C)(C)C)cc34)c2c1.[Cl-].[Cl-].[Cl-].[Cl-] [2,2', 7,7'-tetrakis(trimethylammonio)-9,9'-dianthracene tetrachloride]
- Optimum Concentration tested (E. coli B [1]): 50 µM

Compound: Nc1cc2nc3ccccc3oc-2cc1=O [2-aminophenoxazone]
- Optimum Concentration tested (E. coli B [1]): 25 µM

Compound: CC[n+]1c(C=Cc2ccc(N(C)C)cc2)ccc2ccccc21.[Cl-] [2-p-dimethylaminostyryl-N-ethyl-quinolinium chloride]
- Optimum Concentration tested (E. coli B [1]): 0.3 µM

Compound: C[N+](C)(C)c1ccc(-c2ccc([N+](C)(C)C)cc2)cc1.[Cl-].[Cl-] [4,4'-bis(trimethylammonio)diphenyl-dichloride]
- Optimum Concentration tested (E. coli B [1]): 310 µM

Compound: C[N+](C)(C)c1ccc(Cc2ccc([N+](C)(C)C)cc2)cc1 [4,4'-bis(trimethylammonio)diphenylmethane]
- Optimum Concentration tested (E. coli B [1]): 29 µM
- MST (Walker rat carcinoma 256; [3]): 8.0 days
- T/C (Walker rat carcinoma 256; [3]): 100
- amplification of the activity of phleomycin (survival of tumour-bearing rats) (Walker rat carcinoma 256): amplified the activity of phleomycin
- MST (Walker rat carcinoma 256; [4]): 10.0 days
- T/C (Walker rat carcinoma 256; [4]): 125
- adequate concentration of amplifier in conjunction with phleomycin (E. coli B [2]): 10^-3 molar

Compound: CN(C)c1ccc(C(=N)c2ccc(N(C)C)cc2)cc1.Cl [Auramin O]
- Optimum Concentration tested (E. coli B [1]): 3.3 µM
- MST (Walker rat carcinoma 256; [5]): 9.5 days
- T/C (Walker rat carcinoma 256; [5]): 95
- amplification of the activity of phleomycin (survival of tumour-bearing rats) (Walker rat carcinoma 256): amplified the activity of phleomycin
- MST (Walker rat carcinoma 256; [6]): 18 days
- T/C (Walker rat carcinoma 256; [6]): > 180

Compound: CCN(CC)c1ccc(C(=C2C=CC(=[N+](CC)CC)C=C2)c2ccccc2)cc1.O=S(=O)([O-])O [Brilliant Green]
- Optimum Concentration tested (E. coli B [1]): 9.6 µM
- MST (Walker rat carcinoma 256; [7]): 9 days
- T/C (Walker rat carcinoma 256; [7]): 112
- amplification of the activity of phleomycin (survival of tumour-bearing rats) (Walker rat carcinoma 256): amplified the activity of phleomycin
- MST (Walker rat carcinoma 256; [8]): 10 days
- T/C (Walker rat carcinoma 256; [8]): 125
- MST (Walker rat carcinoma 256; [9]): 11 days
- T/C (Walker rat carcinoma 256; [9]): 138
- MST (Walker rat carcinoma 256; [10]): 11 days
- T/C (Walker rat carcinoma 256; [10]): 138

Compound: CN(C)c1ccc(C(=C2C=CC(=[N+](C)C)C=C2)c2ccc(N(C)C)cc2)cc1 [Crystal Violet]
- Optimum Concentration tested (E. coli B [1]): 2.4 µM
- MST (Walker rat carcinoma 256; [11]): 12.5 days
- T/C (Walker rat carcinoma 256; [11]): 104
- amplification of the activity of phleomycin (survival of tumour-bearing rats) (Walker rat carcinoma 256): amplified the activity of phleomycin
- MST (Walker rat carcinoma 256; [12]): > 30 days
- T/C (Walker rat carcinoma 256; [12]): 250
- adequate concentration of amplifier in conjunction with phleomycin (E. coli B [2]): 10^-7 molar

Compound: CC[n+]1c(-c2ccccc2)c2cc(N)ccc2c2ccc(N)cc21.[Br-] [Ethidium bromide]
- Optimum Concentration tested (E. coli B [1]): 13 µM
- adequate concentration of amplifier in conjunction with phleomycin (E. coli B [2]): 10^-4 molar

Compound: CN(C)c1ccc(C(=C2C=CC(=[N+](C)C)C=C2)c2ccccc2)cc1.[Cl-] [Malachite green]
- Optimum Concentration tested (E. coli B [1]): 3 µM
- MST (Walker rat carcinoma 256; [13]): 8 days
- T/C (Walker rat carcinoma 256; [13]): 100
- amplification of the activity of phleomycin (survival of tumour-bearing rats) (Walker rat carcinoma 256): amplified the activity of phleomycin
- MST (Walker rat carcinoma 256; [14]): 16.5 days
- T/C (Walker rat carcinoma 256; [14]): 206

Compound: CN(C)c1ccc2nc3ccc(=[N+](C)C)cc-3sc2c1.[Cl-] [Methylene Blue]
- Optimum Concentration tested (E. coli B [1]): 13 µM

Compound: Cc1cc2nc3ccc(N(C)C)cc3nc2cc1N.Cl [Neutral Red]
- Optimum Concentration tested (E. coli B [1]): 33 µM
- enhancement of the ability of phleomycin to prolong the survival of rats carrying tumours (Walker rat carcinoma 256; Neutral Red 20 μg/kg/day with phleomycin at 8, 16 or 32 micrograms/kg/day): active
- MST (Walker rat carcinoma 256; [15]): 11.0 days
- T/C (Walker rat carcinoma 256; [15]): 79
- MST (Walker rat carcinoma 256; [16]): 20 days
- T/C (Walker rat carcinoma 256; [16]): 143
- MST (Walker rat carcinoma 256; [17]): > 30 days
- T/C (Walker rat carcinoma 256; [17]): > 214
- MST (Walker rat carcinoma 256; [18]): > 30 days
- T/C (Walker rat carcinoma 256; [18]): > 214

Compound: CC[N+](CC)=c1ccc2nc3c(cc(N)c4ccccc43)oc-2c1 [Nile Blue]
- Optimum Concentration tested (E. coli B [1]): 2.7 µM

Compound: CN(C)c1ccc2cc3ccc(=[N+](C)C)cc-3oc2c1.[Cl-] [Pyronin Y]
- Optimum Concentration tested (E. coli B [1]): 170 µM

Compound: CCN(CC)CCCC(C)Nc1c2ccc(Cl)cc2nc2ccc(OC)cc12 (stereo not shown) [Quinacrine]
- Optimum Concentration tested (E. coli B [1]): 39 µM

Compound: CCNc1ccc2c(-c3ccccc3C(=O)O)c3ccc(=[N+](CC)CC)cc-3oc2c1.[Cl-] [Rhodamine G]
- Optimum Concentration tested (E. coli B [1]): 120 µM

Compound: Cc1cc2nc3cc(C)c(N)cc3[n+](-c3ccccc3)c2cc1N.[Cl-] [Safranin T]
- Optimum Concentration tested (E. coli B [1]): 14 µM

Compound: Cc1cc2nc3ccc(N(C)C)cc3[s+]c2cc1N.[Cl-] [Toluidine Blue]
- Optimum Concentration tested (E. coli B [1]): 16 µM

Compound: Brilliant Cresol Blue
- Optimum Concentration tested (E. coli B [1]): 340 µM

Compound: Methyl Violet
- Optimum Concentration tested (E. coli B [1]): 1.6 µM

From US4170640A, “Antibiotic mixtures” (priority 1977, dated 1979)
